According to PubChem BioAssay (NCI):
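Tested at 5 concentrations; 48 h exposure; 96-well plates; endpoints linearly interpolated, else capped at highest concentration. Abbreviation: GI50, concentration required for 50% inhibition of growth. TGI denotes the concentration required for complete inhibition of growth.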 Where a SMILES comes first, the peptide text is derived from it. Bridges are numbered along the chain shown (N, C = ends). [ ]: non-standard residue; d: D form. The star is where a group is joined. ξ: configuration not given here. ξDab(CH2SO3H) = NC(CCNCS(=O)(=O)O)C(=O)O; Heptanoyl(6-Me) = CC(C)CCCCC(=O)*; Dab = NCC[CH](N)C(=O)O

What was measured:
Experiment in all cases: DTP human tumour cell line panel, 48 h
HOP-62 NSCLC = test system: HOP-62 NSCLC
MCF7 breast = test system: MCF7 breast
A498 renal = test system: A498 renal
HCT-116 colon = test system: HCT-116 colon
OVCAR-4 ovarian = test system: OVCAR-4 ovarian
HS 578T breast = test system: HS 578T breast
SF-295 CNS = test system: SF-295 CNS
NCI-H460 lung = test system: NCI-H460 lung
A549 NSCLC = test system: A549 NSCLC
KM12 colon = test system: KM12 colon

Compound | GI50 (HOP-62 NSCLC) | TGI (HOP-62 NSCLC) | GI50 (MCF7 breast) | TGI (MCF7 breast) | GI50 (A498 renal) | TGI (A498 renal) | GI50 (HCT-116 colon) | TGI (HCT-116 colon) | GI50 (OVCAR-4 ovarian) | TGI (OVCAR-4 ovarian) | GI50 (HS 578T breast) | TGI (HS 578T breast) | GI50 (SF-295 CNS) | TGI (SF-295 CNS) | GI50 (NCI-H460 lung) | TGI (NCI-H460 lung) | GI50 (A549 NSCLC) | TGI (A549 NSCLC) | GI50 (KM12 colon) | TGI (KM12 colon)
Cc1ccc2c(c1)c(Sc1ccc(C(=O)NO)cc1)c1n2CN(C)CC1 | 1.61 µM | 3.83 µM | 2.44 µM | 11.5 µM | 0.191 µM | 2.16 µM | 1.59 µM | 3.54 µM | 1.51 µM | 9.04 µM | 2.25 µM | 13 µM | 1.83 µM | 3.69 µM | 2.05 µM | 6.16 µM | 2.27 µM | 5.81 µM | 1.71 µM | 3.5 µM
CN1CCC2(CC1)NC(=O)c1c(c3ccc(Cl)c(Cl)c3n1C)C2C#N (stereo not given) | 9.72 µM | 23.2 µM | 2.53 µM | 8.83 µM | 9.05 µM | 24.1 µM | 3.11 µM | 9.17 µM | 11.7 µM | > 56 µM | 7.63 µM | 45.6 µM | 10 µM | 25.3 µM | 2.75 µM | 14.3 µM | 7.33 µM | 24.6 µM | 3.84 µM | 8.55 µM
COc1ccc2c(O)c(/C=C3\N=Nc4ccccc43)oc2c1C[C@@H]1CCNC[C@H]1F | 11.1 µM | 24.6 µM | 3.44 µM | 19.5 µM | 11.3 µM | 25.6 µM | 1.65 µM | 3.17 µM | 11.4 µM | 26.6 µM | 10.3 µM | 28.7 µM | 3.31 µM | 15.3 µM | 2.02 µM | 4.1 µM | 13.5 µM | 28 µM | 0.695 µM | 12 µM
CCC(C)C1NC(=O)C(CCNCS(=O)(=O)O)NC(=O)C(NC(=O)C(CCNCS(=O)(=O)O)NC(=O)C(NC(=O)C(CCNCS(=O)(=O)O)NC(=O)CCCCC(C)C)C(C)O)CCNC(=O)C(C(C)O)NC(=O)C(CCNCS(=O)(=O)O)NC(=O)C(CCNCS(=O)(=O)O)NC(=O)C(C(C)CC)NC1=O (stereo not given) ({Heptanoyl(6-Me)}-[ξDab(CH2SO3H)]T[ξDab(CH2SO3H)][Dab][ξDab(CH2SO3H)]II[ξDab(CH2SO3H)][ξDab(CH2SO3H)]T; lactam 4-C; configuration not given here) | 8.74 µM | > 25 µM | 4.71 µM | > 25 µM | 7.07 µM | > 25 µM | 7.33 µM | > 25 µM | 11.3 µM | > 25 µM | 7.65 µM | > 25 µM | 6.66 µM | > 25 µM | 6.86 µM | 22.1 µM | > 25 µM | > 25 µM | 2.99 µM | 9.55 µM
Cc1ccc(-c2cc3c4c(nc5ccccc53)C(=O)c3cccnc3-c4n2)cc1 | 15.7 µM | 37.5 µM | 1.85 µM | 6.31 µM | 11.8 µM | 32.7 µM | 7.65 µM | 22.8 µM | 15.6 µM | 73.8 µM | 18.3 µM | 43.8 µM | 12.4 µM | 25.7 µM | 3.14 µM | 16.4 µM | 4.02 µM | 16.2 µM | 6.46 µM | 25.7 µM
Cn1nc(C(F)(F)F)cc1-c1c[nH]c(OCc2ccc(Cl)cc2)c(-c2ccc(Cl)c(C(F)(F)F)c2)c1=O | 1.3 µM | 3.55 µM | 1.22 µM | > 50 µM | 0.446 µM | 1.31 µM | 0.927 µM | 4.51 µM | 1.43 µM | > 50 µM | 1.07 µM | 3.85 µM | 0.887 µM | 2.18 µM | 0.944 µM | 5 µM | 1.45 µM | > 50 µM | 1.26 µM | 4.86 µM
COc1ccc2c(c1)oc(=O)c1cc(OC)ccc12 | > 100 µM | > 100 µM | > 100 µM | > 100 µM | 1.56 µM | 99 µM | > 100 µM | > 100 µM | > 100 µM | > 100 µM | > 100 µM | > 100 µM | > 100 µM | > 100 µM | > 100 µM | > 100 µM | > 100 µM | > 100 µM | > 100 µM | > 100 µM
C=C1C(=O)O[C@H]2C[C@@H]1CC/C(C)=C/CC/C(C)=C/CC[C@@]2(C)O | > 100 µM | > 100 µM | 37.3 µM | > 100 µM | 43.8 µM | > 100 µM | 17.6 µM | 32.8 µM | > 100 µM | > 100 µM | 48 µM | > 100 µM | > 100 µM | > 100 µM | > 100 µM | > 100 µM | > 100 µM | > 100 µM | > 100 µM | > 100 µM
CC(N)(/C=C/c1ccccc1)C(=O)O (stereo not given) |  | > 100 µM |  | > 100 µM |  | > 100 µM |  | > 100 µM |  | > 100 µM |  | > 100 µM |  | > 100 µM |  | > 100 µM |  | > 100 µM |  | > 100 µM
S=C(NCCNC(=S)[S][Sn]([c]1ccccc1)([c]1ccccc1)[c]1ccccc1)[S][Sn]([c]1ccccc1)([c]1ccccc1)[c]1ccccc1 | 0.0677 µM | 0.147 µM | 0.0133 µM | 0.0553 µM | 0.0231 µM | 0.0849 µM | 0.0127 µM | 0.0315 µM | 0.0212 µM | 0.0805 µM | 0.0564 µM | 0.461 µM | 0.099 µM | 0.227 µM | 0.0169 µM | 0.0575 µM | 0.0231 µM | 0.0938 µM | 0.0197 µM | 0.0652 µM
CC/C(=C(/c1ccc(O)cc1)c1ccc(OCCN)cc1)c1ccccc1 | 3.3 µM | 10.7 µM | < 0.0233 µM | 3.99 µM | 2.49 µM | 16.8 µM | 1.91 µM | 4.08 µM | 2.88 µM | 16 µM | 2.82 µM | 12.8 µM | 1.86 µM | 4 µM | 1.96 µM | 3.95 µM | 2.97 µM | 8.81 µM | 1.97 µM | 3.9 µM
C[C@]12CC[C@@H]3c4cc(OC(F)F)c(OS(N)(=O)=O)cc4CC[C@H]3[C@@H]1CC[C@@H]2OS(N)(=O)=O | 3.4 µM | 38.8 µM | 1.09 µM | 19.2 µM | 0.934 µM | 4.02 µM | 0.997 µM | 13.9 µM | 5.33 µM | 29.5 µM | 1 µM | 16.1 µM | 1.04 µM | 3.14 µM | 1.45 µM | 15.4 µM | 2.52 µM | 34.4 µM | 1.62 µM | 20 µM
